Results taken from publication PMC11324517 (Nature, 2024).
Where a chain is given by its changes, count along the chain named. “And” between values parts separate entries of the source, which are not always exact repeats. Equal values may be shown once. “Also recorded” adds a separate entry of the source. Read-outs that look alike come from different tables or passages of the source.

Tests used:
∆-hDAT I390L = ∆-hDAT I390L (Homo sapiens, UniProt Q01959, I248Y/I390L); conditions: [3H]dopamine uptake
∆-hDAT = ∆-hDAT (Homo sapiens, UniProt Q01959, I248Y); conditions: 10 µM MRS7292, [3H]DA 0.185 uM, background not subtracted
∆-hDAT Y394F = ∆-hDAT Y394F (Homo sapiens, UniProt Q01959, I248Y/Y394F); conditions: for Y394F total (raw [3H]dopamine uptake counts): Extended Data Fig 7c source data, replicates 1-3
∆-hDAT W84A = target: T1, ∆-hDAT W84A (Homo sapiens, UniProt Q01959, I248Y/W84A); conditions: for W84A total (raw [3H]dopamine uptake counts): Extended Data Fig 7c source data, replicates 1-3
T1 sequence (Q01959 57-620 W84A/I248Y limits assumed): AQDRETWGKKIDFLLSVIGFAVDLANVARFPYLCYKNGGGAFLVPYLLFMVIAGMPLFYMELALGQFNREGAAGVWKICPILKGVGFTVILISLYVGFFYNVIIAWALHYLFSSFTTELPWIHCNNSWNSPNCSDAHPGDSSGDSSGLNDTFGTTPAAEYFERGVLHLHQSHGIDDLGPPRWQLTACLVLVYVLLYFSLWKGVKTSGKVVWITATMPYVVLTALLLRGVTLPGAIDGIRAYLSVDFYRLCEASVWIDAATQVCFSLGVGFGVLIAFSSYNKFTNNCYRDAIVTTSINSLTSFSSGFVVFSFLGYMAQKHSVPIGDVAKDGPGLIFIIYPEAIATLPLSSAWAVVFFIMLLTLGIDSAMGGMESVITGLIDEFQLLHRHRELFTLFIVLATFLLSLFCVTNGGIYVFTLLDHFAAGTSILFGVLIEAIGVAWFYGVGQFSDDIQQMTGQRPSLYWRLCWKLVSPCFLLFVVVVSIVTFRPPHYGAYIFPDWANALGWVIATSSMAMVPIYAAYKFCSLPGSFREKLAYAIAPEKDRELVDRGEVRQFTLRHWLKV

full-length hDAT = full-length hDAT (Homo sapiens, UniProt Q01959); conditions: background not subtracted
∆-hDAT V364I/I390L = ∆-hDAT V364I/I390L (Homo sapiens, UniProt Q01959, I248Y/I390L/V364I); conditions: MRS7292 10 µM; [3H]dopamine uptake, Figure 2d raw data
∆-hDAT D385A = ∆-hDAT D385A (Homo sapiens, UniProt Q01959, D385A/I248Y); conditions: MRS7292 30 µM; [3H]dopamine uptake, Figure 2d raw data
∆-hDAT W84C = target: T2, ∆-hDAT W84C (Homo sapiens, UniProt Q01959, I248Y/W84C); conditions: for W84C total (raw [3H]dopamine uptake counts): Extended Data Fig 7c source data, replicates 1-3
T2 sequence (Q01959 57-620 W84C/I248Y limits assumed): T1 sequence (Q01959 57-620 W84A/I248Y limits assumed) with A28C

∆-hDAT D385N = ∆-hDAT D385N (Homo sapiens, UniProt Q01959, D385N/I248Y); conditions: D385N versus ∆-hDAT
∆-hDAT V364I = ∆-hDAT V364I (Homo sapiens, UniProt Q01959, I248Y/V364I); conditions: [3H]dopamine uptake, Figure 2d raw data
Sequence of ∆-hDAT V364I (Q01959 57-620 I248Y/V364I limits assumed): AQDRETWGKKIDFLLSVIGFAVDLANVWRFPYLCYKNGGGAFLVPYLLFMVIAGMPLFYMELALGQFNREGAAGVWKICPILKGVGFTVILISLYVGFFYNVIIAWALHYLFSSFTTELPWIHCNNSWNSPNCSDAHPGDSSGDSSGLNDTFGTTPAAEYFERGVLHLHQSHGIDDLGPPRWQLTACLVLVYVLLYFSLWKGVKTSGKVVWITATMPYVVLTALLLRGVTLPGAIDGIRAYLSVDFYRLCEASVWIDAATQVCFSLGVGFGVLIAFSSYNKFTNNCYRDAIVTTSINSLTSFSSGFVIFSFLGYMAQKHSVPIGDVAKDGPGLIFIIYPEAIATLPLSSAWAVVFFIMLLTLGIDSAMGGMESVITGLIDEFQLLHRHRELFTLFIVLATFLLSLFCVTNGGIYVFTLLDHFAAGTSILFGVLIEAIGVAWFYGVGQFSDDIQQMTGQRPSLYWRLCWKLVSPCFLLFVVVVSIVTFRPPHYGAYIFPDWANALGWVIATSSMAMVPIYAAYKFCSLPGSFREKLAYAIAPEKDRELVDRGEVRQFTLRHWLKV

Sequence of ∆-hDAT D385N (Q01959 57-620 I248Y/D385N limits assumed): as the sequence (Q01959 57-620 I248Y/V364I limits assumed) above, with I308V, D329N counted along it
Sequence of ∆-hDAT V364I/I390L (Q01959 57-620 I248Y/V364I/I390L limits assumed): as the sequence (Q01959 57-620 I248Y/V364I limits assumed) above, with I334L counted along it
Sequence of ∆-hDAT D385A (Q01959 57-620 I248Y/D385A limits assumed): as the sequence (Q01959 57-620 I248Y/V364I limits assumed) above, with I308V, D329A counted along it
Sequence of ∆-hDAT (Q01959 57-620 I248Y limits assumed): as the sequence (Q01959 57-620 I248Y/V364I limits assumed) above, with I308V counted along it
Sequence of ∆-hDAT Y394F (Q01959 57-620 I248Y/Y394F limits assumed): as the sequence (Q01959 57-620 I248Y/V364I limits assumed) above, with I308V, Y338F counted along it
Sequence of full-length hDAT (Q01959 whole entry): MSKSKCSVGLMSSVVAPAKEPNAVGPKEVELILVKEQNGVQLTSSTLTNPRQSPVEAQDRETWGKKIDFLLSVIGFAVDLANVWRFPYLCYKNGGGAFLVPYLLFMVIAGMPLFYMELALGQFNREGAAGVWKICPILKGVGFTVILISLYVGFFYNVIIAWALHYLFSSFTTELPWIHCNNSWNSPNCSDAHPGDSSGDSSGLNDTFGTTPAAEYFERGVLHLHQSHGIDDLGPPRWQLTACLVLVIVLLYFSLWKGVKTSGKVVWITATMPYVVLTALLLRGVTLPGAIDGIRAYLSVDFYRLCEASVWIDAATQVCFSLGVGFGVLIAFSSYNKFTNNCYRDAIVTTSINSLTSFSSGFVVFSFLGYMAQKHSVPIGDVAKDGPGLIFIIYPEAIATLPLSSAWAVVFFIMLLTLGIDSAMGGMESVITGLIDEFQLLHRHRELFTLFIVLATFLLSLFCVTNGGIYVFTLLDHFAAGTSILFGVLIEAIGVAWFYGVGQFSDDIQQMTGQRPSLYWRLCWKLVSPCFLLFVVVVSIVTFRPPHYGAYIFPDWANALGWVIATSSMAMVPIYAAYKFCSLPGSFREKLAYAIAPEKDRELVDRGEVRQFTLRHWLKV
Sequence of ∆-hDAT I390L (Q01959 57-620 I248Y/I390L limits assumed): as the sequence (Q01959 57-620 I248Y/V364I limits assumed) above, with I308V, I334L counted along it

For `CNc1nc(C#Cc2ccc(Cl)s2)nc2c1ncn2[C@H]1[C@H](O)[C@H](O)[C@]2(C(=O)OC)C[C@H]12` [MRS7292], the “change in IC50 of MRS7292 versus ∆-hDAT” value (∆-hDAT I390L; I390L mutant) was “modest increase in the IC50 value; also recorded: increased IC50”, the I390L total counts (∆-hDAT I390L; MRS7292 30 µM, Figure 2d raw data) was 109 counts and 108 counts and 83 counts and 89 counts and 68 counts and 75 counts and 87 counts and 88 counts and the “[3H]DA Uptake - Δ-hDAT, total counts - 10 µM MRS7292” value (∆-hDAT) was 20 cpm and 17 cpm and 15 cpm and 19 cpm and 12 cpm and 22 cpm. The “Y394F total (raw [3H]dopamine uptake counts)” value (from here on “Y394F total”) (∆-hDAT Y394F; MRS7292 1e-6 µM) was 1962 and 2141 and 2109 and 2218 and 1876 and 2149 and 2315 and 2380 and 2515, the “Y394F total” value (∆-hDAT Y394F; MRS7292 0.041 µM) was 2021 and 1947 and 2451 and 1672 and 1475 and 1990 and 5167 and 4746 and the “Y394F total” value (∆-hDAT Y394F; MRS7292 0.123 µM) was 2135 and 2187 and 2249 and 1538 and 1496 and 1463 and 3048 and 2825 and 2648. For the same molecule, the “Y394F total” value (∆-hDAT Y394F; MRS7292 0.37 µM) was 2258 and 2255 and 2215 and 1771 and 1434 and 1467 and 2327 and 2753 and 2672, the “Y394F total” value (∆-hDAT Y394F; MRS7292 1.11 µM) was 1683 and 2000 and 1961 and 1802 and 1518 and 1933 and 2789 and 2557 and 2651 and the “Y394F total” value (∆-hDAT Y394F; MRS7292 3.33 µM) was 2058 and 2080 and 2545 and 1969 and 2086 and 2231 and 2762 and 2184 and 1914. For the same molecule, the “Y394F total” value (∆-hDAT Y394F; MRS7292 10 µM) was 2191 and 2728 and 2379 and 1871 and 1698 and 1883 and 2721 and 2825 and 2576, the “Y394F total” value (∆-hDAT Y394F; MRS7292 30 µM) was 1926 and 2280 and 2146 and 1689 and 1287 and 1345 and 2421 and 2231 and 2505 and the “effect of mutation on potency of MRS7292 (inhibition of dopamine uptake)” value (“effect … (inhibition of dopamine uptake)” below) (∆-hDAT Y394F; Y394F versus ∆-hDAT) was “diminishes the potency; also recorded: severe loss of MRS7292 activity”. The “W84A total (raw [3H]dopamine uptake counts)” value (shortened to “W84A total”) (∆-hDAT W84A; MRS7292 1e-6 µM) was 4895 and 4792 and 4802 and 4600 and 4953 and 4373 and 5070 and 4982 and 5054, the “W84A total” value (∆-hDAT W84A; MRS7292 0.041 µM) was 4749 and 4230 and 4559 and 4747 and 4675 and 5103 and 5266 and 5201 and 5101 and the “W84A total” value (∆-hDAT W84A; MRS7292 0.123 µM) was 4930 and 5121 and 4987 and 4751 and 4624 and 4813 and 5010 and 4838 and 4937. For the same molecule, the “W84A total” value (∆-hDAT W84A; MRS7292 0.37 µM) was 4894 and 4668 and 4952 and 4517 and 4587 and 4491 and 5700 and 5202 and 4820, the “W84A total” value (∆-hDAT W84A; MRS7292 1.11 µM) was 4984 and 5198 and 4980 and 4949 and 4430 and 4563 and 5130 and 4679 and 4795 and the “W84A total” value (∆-hDAT W84A; MRS7292 3.33 µM) was 4301 and 4523 and 4569 and 4697 and 4581 and 4993 and 4757 and 5251 and 4774. For the same molecule, the “W84A total” value (∆-hDAT W84A; MRS7292 10 µM) was 4768 and 4277 and 4629 and 4852 and 4916 and 4947 and 5164 and 4713 and 5124, the “W84A total” value (∆-hDAT W84A; MRS7292 30 µM) was 3395 and 3824 and 4400 and 4392 and 4159 and 3949 and 4924 and 4868 and 4552 and the “effect … (inhibition of dopamine uptake)” value (∆-hDAT W84A; W84A versus ∆-hDAT) was “severely compromises the potency; also recorded: severe loss of MRS7292 activity”. For the same molecule, the “[3H]DA Uptake - Full length hDAT, total counts - 10 µM MRS7292” value (“[3H]DA Uptake - Full length hDAT” below) (full-length hDAT; 10 µM MRS7292, [3H]DA 0.0068 uM) was 10 cpm and 11 cpm and 8 cpm and 14 cpm and 9 cpm and 16 cpm, the “[3H]DA Uptake - Full length hDAT” value (full-length hDAT; 10 µM MRS7292, [3H]DA 0.061 uM) was 13 cpm and 18 cpm and 14 cpm and 10 cpm and 16 cpm and 15 cpm and 19 cpm and 17 cpm and the “[3H]DA Uptake - Full length hDAT” value (full-length hDAT; 10 µM MRS7292, [3H]DA 0.185 uM) was 25 cpm and 15 cpm and 20 cpm and 27 cpm and 21 cpm and 23 cpm and 22 cpm. For the same molecule, the “[3H]DA Uptake - Full length hDAT” value (full-length hDAT; 10 µM MRS7292, [3H]DA 1.66 uM) was 65 cpm and 83 cpm and 90 cpm and 75 cpm and 88 cpm and 55 cpm and 51 cpm and 66 cpm, the I390L-V364I total (∆-hDAT V364I/I390L) was 85 and 69 and 75 and 62 and 48 and 60 and 76 and 66 and the D385A total (∆-hDAT D385A) was 286 and 316 and 337 and 362 and 408 and 403 and 257 and 320. The “W84C total (raw [3H]dopamine uptake counts)” value (“W84C total” for short) (∆-hDAT W84C; MRS7292 1e-6 µM) was 4594 and 4467 and 4710 and 3850 and 4193 and 4029 and 4760 and 5939 and 5408, the “W84C total” value (∆-hDAT W84C; MRS7292 0.041 µM) was 5542 and 4901 and 4879 and 3714 and 3791 and 3749 and 5161 and 5312 and 5150 and the “W84C total” value (∆-hDAT W84C; MRS7292 0.123 µM) was 5015 and 4917 and 5068 and 3749 and 3676 and 3489 and 6082 and 6141 and 5806. The “W84C total” value (∆-hDAT W84C; MRS7292 0.37 µM) was 4864 and 5475 and 5004 and 3395 and 4058 and 4217 and 6996 and 6040 and 6103, the “W84C total” value (∆-hDAT W84C; MRS7292 1.11 µM) was 4560 and 4192 and 4804 and 2868 and 3597 and 3884 and 6157 and 6005 and the “W84C total” value (∆-hDAT W84C; MRS7292 3.33 µM) was 5290 and 5001 and 5041 and 3941 and 4001 and 3991 and 5807 and 6342 and 6018. The “W84C total” value (∆-hDAT W84C; MRS7292 10 µM) was 5439 and 5725 and 4868 and 3830 and 4200 and 4303 and 5849 and 6416 and 6207, the “W84C total” value (∆-hDAT W84C; MRS7292 30 µM) was 4716 and 4588 and 4467 and 3448 and 3565 and 3579 and 4954 and 3057 and 4610 and the “effect … (inhibition of dopamine uptake)” value (∆-hDAT W84C; W84C versus ∆-hDAT) was “severely compromises the potency; also recorded: severe loss of MRS7292 activity”. For the same molecule, the “effect … (inhibition of dopamine uptake)” value (∆-hDAT D385N) was “retained potency; also recorded: potency of MRS7292 was maintained; also recorded: little effect”, the V364I total (∆-hDAT V364I; MRS7292 1e-6 µM) was 5751 and 5593 and 5760 and 5223 and 5698 and 5483 and 5457 and 5433 and the V364I total (∆-hDAT V364I; MRS7292 10 µM) was 65 and 56 and 61 and 57 and 59 and 73 and 84 and 89. The V364I total (∆-hDAT V364I; MRS7292 30 µM) was 24 and 25 and 29 and 37 and 23 and 36 and 26.
